Here are results for four molecules from the NIST ThermoML archive (doi:10.1021/acs.jced.7b01135).

Series [1] can be described thus: wn = mass fraction of the nth substance listed. Conditions: 298.2 K; 101.3 kPa; Liquid; Pycnometric method; w1 = 0.2.
Series [2] can be described thus: refractive index (Na D-line) (dimensionless); wn = mass fraction of the nth substance listed. The conditions noted are these: 101.3 kPa, Liquid, Standard Abbe refractometry.
For series [3] the following is noted: 298.2 K; 101.33 kPa; Liquid; Pycnometric method.
Series [4] is described as follows: refractive index (Na D-line) (dimensionless). The conditions noted are these: 298.2 K; 101.33 kPa; Liquid; Standard Abbe refractometry.

As a reminder, the mass density is mass per unit of volume. The term refractive index denotes a measure of how strongly the sample bends light.

± gives the expanded uncertainty stated by the source.

Regarding `O=C(O)CC(O)(CC(=O)O)C(=O)O` [citric acid] + O, the mass density in series [1] came out at 1085.86 ± 2 kg/m3. For the same molecule, in series [2] (298.2 K, w1 = 0.2), the refractive index was 1.356 ± 0.012.
Consider `CCCCCCCCCCO` [decan-1-ol], for which, in series [3], the mass density was 826.86 ± 2 kg/m3. In series [4], the refractive index worked out at 1.4346 ± 0.012.
For `CCCCCCCCCCO` [decan-1-ol] + O, the refractive index came out at 1.33545 ± 0.012 in series [2] (298.2 K, w2 = 0.9975); 1.33463 ± 0.012 in series [2] (308.2 K, w2 = 0.9938); 1.33317 ± 0.012 in series [2] (318.2 K, w2 = 0.9901); 1.33224 ± 0.012 in series [2] (328.2 K, w2 = 0.9864).
Turning to `O` [water], the refractive index in series [4] is recorded as 1.3324 ± 0.012.
